Test results published in PMC6058575, “Enhanced anti-hepatocarcinoma efficacy by GLUT1 targeting and cellular microenvironment-responsive PAMAM–camptothecin conjugate” (Drug Delivery, 2017).
Read-outs that look alike come from different tables or passages of the source.

Legend:
[1] = Pharmacokinetic study after intravenous administration; type: in vivo; conditions: rats; for maximum plasma drug concentration: 1.5 mg/kg CPT i.v., 5 min post administration
Description: The rats were fasted for 12 h with free access to water before the experiment. Briefly, 0.5 ml of blood was collected in centrifuge tubes at predefined times of 0.083, 0.33, 0.5, 1, 2, 4, 8, 12, and 24 h. Blood samples were centrifuged at 15,000 rpm for 15 min at 4 °C to isolate plasma fractions. Then, 100 μL of methanol was added to the plasma, and the mixture was extracted with 2 mL hexane and 1 mL dichloromethane. The mixture was vortexed for 10 min and centrifuged at 15,000 rpm for 15 min, and the supernatant was collected and dried using a stream of nitrogen gas. The resultant residue was redissolved in 200 μL methanol and stored at −20 °C until further analysis.

[2] = tested on: HepG2 cells; assay: Cell-cycle analysis by flow cytometry (PI); type: cell-based; conditions: 1 μM CPT, 24 h, control cells 21.30%
Description: The cell-cycle percentage of HepG2 was analyzed using flow cytometer. […] After 24 h, the cells were trypsinized, washed with PBS, and fixed with 4 °C pre-cooling 70% ethanol overnight at −20 °C. […] Finally, the cells were stained with propidium iodide (PI) solution for 20 min and determined by flow cytometer.

[3] = tested on: H22 tumor-bearing mice; assay: Toxicity in the efficacy study (body weight, H&E staining); type: in vivo; conditions: for H&E histology of liver and spleen: 1 mg/kg CPT i.v., day 12
Description: (§1) The tumor-bearing mice were randomly divided into five groups (10 per group). The control group mice were administered saline. […] Body weights were recorded daily. At day 12, four mice of each group were sacrificed by carbon dioxide asphyxiation. Tumors, livers and spleens were collected and fixed with 10% paraformaldehyde for 48 h. These tissues were cut into […] sections and processed for H&E staining. The remaining […] in each group were also sacrificed, and the tumors were collected and weighed.

[4] = tested on: HepG2 cells; assay: Apoptosis assay, Annexin V-FITC/PI double staining; type: cell-based; conditions: 1 μM CPT, 24 h
Description: The apoptosis induction effect of conjugates on HepG2 cells was detected by Annexin V-FITC/PI double staining method. […] After 24 h, the cells were trypsinized (without EDTA), washed with PBS (containing 2% BSA), stained by 5 μL of Annexin V-FITC and 5 μL of 100 μg/mL PI, and re-suspended in 500 μL of binding buffer. After 15 min incubation, cells were determined by flow cytometer.

[5] = tested on: HepG2 cells; assay: Subcellular localization by CLSM; type: cell-based; conditions: 1 μM CPT, 4 h
Description: HepG2 and L02 cells were seeded on cover glasses embedded in 24-well culture plates at densities of 5 × 10^4 cells/well. After 24 h, conjugates were added at a 1 μM CPT concentration and co-incubated with the cells for 4 h at 37 °C. Then, after the conjugate solutions were removed, the cells were treated with 50 nM MitoTracker deep red for 30 min and 10 mM Basic Orange 14 for 10 min to stain mitochondria and nuclei, respectively (Paleos et al., [2016]). Then, the cells were fixed with 4% paraformaldehyde, washed three times with ice-cold PBS (pH 7.4), and visualized using CLSM.

[6] = In vitro CPT release by dialysis in PBS with GSH; type: physicochemical; conditions: compared with MPCC and GPCC
Description: A dialysis method was used to determine the in vitro CPT release of conjugates. Conjugates at concentrations of 1 mg/ml were placed in dialysis bags (MWCO 3500 Da) and immersed in 50 ml PBS (pH 7.4) containing different concentrations of GSH (0 μM, 10 μM and 10 mM) to mimic various cellular microenvironment conditions. The drug release was conducted at 100 rpm and 37 °C. During dialysis, 1 ml aliquots were withdrawn from the release medium at predefined intervals, and 1 ml of fresh release medium was added to maintain a constant total volume. The CPT concentrations were determined by HPLC.

[7] = Particle size by dynamic light scattering (DLS); type: physicochemical; conditions: conjugates at 10 mg/ml
Description: The particle sizes and zeta potential of different conjugates at 10 mg/ml were determined using a dynamic light scattering (DLS) particle size analyzer (Nicomp 380 Zeta Potential/Particle Sizer, Santa Barbara, CA). Following staining with 2% sodium phosphotungstate solution, the conjugate morphologies were observed using transmission electron microscopy (TEM) at an accelerating voltage of 100 kV (JEM 1400 JOEL, Akishima City, Tokyo Prefecture, Japan).

[8] = tested on: H22 tumor-bearing mice; assay: In vivo and ex vivo imaging of tumor targeting; conditions: in vivo imaging, 1 mg/kg CPT i.v.
Description: (§2) An H22 tumor-bearing mice model was established based on previously reported method (Li et al., [2014]). Ascitic fluid containing H22 cells was extracted and diluted with PBS (pH 7.0) to 1 × 10^7 cells/ml. The mice (20–22 g) were anesthetized with 5% chloral hydrate and subcutaneously injected with 0.2 ml of cell suspension for armpit tumor implantation. All animal studies were approved by the China Animal Care and Use Committee and carried out according to the Guide for the Care and Use of Laboratory Animals of Beijing University of Chinese Medicine.
Mice were intravenously injected with conjugates at 1 mg/kg CPT concentration. […] Afterward, the tumor-bearing mice were immediately sacrificed by carbon dioxide asphyxiation. Subsequently, major organs (such as tumor, liver, spleen, brain, heart, kidney, and lung) were harvested and visualized.

[9] = tested on: HepG2 MCTS; assay: Uptake in multicellular tumor spheroids (MCTS), CLSM; type: cell-based; conditions: 1 μM, 8 h, 100 µm depth
Description: Besides that, a multicellular tumor spheroids (MCTS) model, which was more suitable for mimicking the tumor microenvionment, was also employed as a supplement to monolayer cell model for better estimating in vitro targeting efficacy (Kunz-Schughart, [1999]). MCTS model was established by the liquid overlay method as described before (Friedrich et al., [2008]). Briefly, HepG2 cells were seeded in 96-well plates coated with 2% agarose at 2 × 10^3 cells per well and incubated for 5 d. […] Thereafter, MCTS were collected by centrifugation, washed with PBS, and observed by confocal laser scanning microscope (CLSM) (Olympus FV1000, Tokyo, Japan) at 100 µm depth of the MCTS (about the middle section of the sphere).

[10] = tested on: HepG2 cells (GLUT1-overexpressing); conditions: 1 μM CPT, flow cytometry
Description: HepG2 and L02 cells were seeded into 96-well culture plates at a density of 1.2 × 10^4 cells/well and incubated for 24 h. After the confluency and morphology were checked, 1 μM conjugates (calculated from CPT) were added to each well and co-incubated with the cells for different times (1, 4, and 8 h). […] The D-GLU was a substrate as well as inhibitor of GLUT1. Then, the GPCC conjugate was co-incubated with the cells for 4 h. At the end of the incubation time, the conjugate solutions were withdrawn from the wells, and the cells were washed three times with cold PBS. After fixation with 4% paraformaldehyde, the cells were qualitatively analyzed by fluorescence microscopy (IX71, Olympus, Tokyo, Japan). After trypsinization and re-suspension of the cells in PBS (pH 7.4), the fluorescence intensity was quantitatively analyzed by flow cytometry (BD FACSAria III, Piscataway, NJ).

[11] = tested on: H22 tumor-bearing mice
Description: as §2, §1

[12] = tested on: L02 cells; assay: MTT cytotoxicity; type: cell-based; conditions: 24 h
Description: The cytotoxicity of different conjugates on HepG2 and L02 cells was determined using 3-(4,5-dimethyl-2-thiazolyl)-2,5-diphenyl-2-H-tetrazolium bromide (MTT) method. The cells were seeded in 96-well culture plates at a density of 5 × 10^3 cells/well. Then the cells were treated with conjugates and free CPT at CPT concentrations ranging from 3 nM to 20 μM at 37 °C for 24 h when 60–70% confluence was reached. After that, the drug solution was replaced with MTT at a concentration of 5 mg/mL, and co-incubated with cells for another 4 h. The supernatant was discarded and adding with 150 μL DMSO to dissolve the MTT-formazan. The absorbance at 492 nm was recorded using a microplate reader.

[13] = rat, plasma, iv, 1.5 mg/kg, 1.5 mg CPT/kg i.v., two-compartment model
[14] = 1.5 mg CPT/kg i.v., two-compartment model

Work on CC[C@@]1(O)C(=O)OCc2c1cc1n(c2=O)Cc2cc3ccccc3nc2-1 [CPT, camptothecin] yielded an AUC(0-inf) [1, 13] of 753 ± 92 ng·h/mL, an AUC(0-t) [1, 13] of 748 ± 92 ng·h/mL and a Tmax [1, 13] of 1.98 min. For the same molecule, the clearance [1, 13] was 33.6 mL/min/kg, the half-life [1, 13] was 9.9 ± 8.04 min and the Cmax ([1]; rat, plasma, iv, 1.5 mg/kg, 1.5 mg CPT/kg i.v., two-compartment model, read-out: Cmax) was 917 ± 50 ng/mL. It also gave an MRT last ([1]; rat, plasma, iv, 1.5 mg/kg, 1.5 mg CPT/kg i.v., two-compartment model, read-out: MRT(0–t)) of 2.4 ± 0.288 h, an MRT inf ([1]; rat, plasma, iv, 1.5 mg/kg, 1.5 mg CPT/kg i.v., two-compartment model, read-out: MRT(0–∞)) of 2.59 ± 0.291 h and a Vd ([1]; rat, plasma, iv, 1.5 mg/kg, 1.5 mg CPT/kg i.v., two-compartment model, read-out: V (apparent volume of distribution)) of 10.6 ± 1.18 L/kg. For the same molecule, the “maximum plasma drug concentration” value [1] was 0.92 µg/mL, the S phase percentage [2] was 27.49% and the body weight change ([3]; 1 mg/kg CPT i.v. on days 0, 2, 4, 6, 8, 10) was “smallest increase”. The “H&E histology of liver and spleen” value [3] was “significant hepatotoxicity and spleen toxicity”, the apoptosis induction effect [4] was “highest apoptosis induction effect” and the subcellular localization [5] was “hardly observed in the cells”.
With PAMAM–CPT–Cy7 [PCC] the CPT release rate [6] was “slightly increased release rate”, the “AUC(0–t)” value [1, 14] was 3594 ± 665 ng·h/mL and the “AUC(0–∞)” value [1, 14] was 4038 ± 505 ng·h/mL. For the same molecule, the CL [1, 14] was 6.27 ± 0.767 mL/min/kg, the Cmax [1, 14] was 2530 ± 330 ng/mL and the “MRT(0–t)” value [1, 14] was 5.042 ± 0.225 h. For the same molecule, the “MRT(0–∞)” value [1, 14] was 9.566 ± 6.991 h, the “V (apparent volume of distribution)” value [1, 14] was 5.104 ± 3.531 L/kg and the t1/2 [1, 14] was 0.398 ± 0.045 h. For the same molecule, the “maximum plasma drug concentration” value [1] was 2.53 µg/mL, the S phase percentage [2] was 34.7% and the “particle size (DLS)” value [7] was 17.6 nm. The “H&E histology of liver and spleen” value [3] was “significant hepatotoxicity and spleen toxicity”, the “fluorescence in tumor sites” value [8] was “slight fluorescence” and the “cellular uptake in MCTS” value [9] was “obviously stronger cellular uptake than the MPCC conjugate”. The subcellular localization [5] was “accumulated in the nuclei of the HepG2 cells”.
With “Glucose–PEG–PAMAM-s-s–Camptothecin-Cy7 [GPCC]” the “cellular uptake relative to MPCC” value [10] was “approximately two-fold”, the S phase percentage [2] was 37.15% and the tumor inhibition ([11]; 1 mg/kg CPT i.v. on days 0, 2, 4, 6, 8, 10, versus CPT suspension and other conjugate groups, p < .05) was “significantly better tumor inhibition rates”. The “H&E histology of tumor tissue” value ([11]; 1 mg/kg CPT i.v., day 12) was “widespread necrosis in tumor tissues”, the tumor weight ([11]; 1 mg/kg CPT i.v., end of experiment, p < .05) was “significantly less than that of the MPCC conjugate” and the apoptosis induction effect [4] was “increased obviously”. The “cellular uptake in MCTS” value [9] was “obviously stronger cellular uptake than the MPCC conjugate” and the subcellular localization [5] was “accumulated in HepG2 nuclei more than the MPCC conjugate”.
With mPEG–PAMAM–CPT–Cy7 [MPCC] the “AUC(0–t)” value [1, 14] was 4677 ± 654 ng·h/mL, the “AUC(0–∞)” value [1, 14] was 4895 ± 620 ng·h/mL and the CL [1, 14] was 5.17 ± 0.617 mL/min/kg. For the same molecule, the Cmax [1, 14] was 3807 ± 144 ng/mL, the “MRT(0–t)” value [1, 14] was 4.341 ± 0.9 h and the “MRT(0–∞)” value [1, 14] was 5.81 ± 1.141 h. For the same molecule, the “V (apparent volume of distribution)” value [1, 14] was 3.207 ± 1.638 L/kg, the t1/2 [1, 14] was 0.258 ± 0.027 h and the “maximum plasma drug concentration” value [1] was 3.81 µg/mL. The S phase percentage [2] was 32.94%, the “particle size (DLS)” value [7] was 19.6 nm and the “time of maximum distribution at tumor sites” value [8] was 4 h. For the same molecule, the cytotoxicity [12] was “lower than that of PCC”.
